The source made the active and inactive calls.
Columns and labels:
Type in all cases: functional, organism-based
Salmonella paratyphi = experiment: Antimicrobial activity against Salmonella paratyphi A; conditions: Salmonella enterica subsp. enterica serovar Paratyphi A
[1] = system: Staphylococcus epidermidis; experiment: Antimicrobial activity against Staphylococcus epidermidis
Shigella dysenteriae = experiment: Antimicrobial activity against Shigella dysenteriae
Staphylococcus aureus = experiment: Antimicrobial activity against Staphylococcus aureus
Bacillus pumilus = experiment: Antimicrobial activity against Bacillus pumilus
Escherichia coli = experiment: Antimicrobial activity against Escherichia coli
Salmonella = experiment: Antimicrobial activity against Salmonella schottmuelleri
Streptococcus pyogenes = experiment: Antimicrobial activity against Streptococcus pyogenes
Bacillus subtilis = experiment: Antimicrobial activity against Bacillus subtilis
Klebsiella pneumoniae = experiment: Antimicrobial activity against Klebsiella pneumoniae
Serratia marcescens = experiment: Antimicrobial activity against Serratia marcescens
Staphylococcus = experiment: Antimicrobial activity against Staphylococcus citreus
Shigella sonnei = experiment: Antimicrobial activity against Shigella sonnei
Proteus vulgaris = experiment: Antimicrobial activity against Proteus vulgaris
[2] = system: Salmonella enterica subsp. enterica serovar Typhi str. CT18; experiment: Antimicrobial activity against Salmonella typhi

Measured: Activity

CC(=O)O[C@@H]1C[C@H]2C(C)(C)C(=O)C=C[C@]2(C)[C@H]2CC[C@]3(C)C(=CC[C@H]3[C@@H](CO)C[C@H](O)C(=O)C(C)(C)O)[C@@]21C
inactive: all assays above

From ChEMBL document CHEMBL1150192, “Tetracyclic Triterpenoids of the Fruit Coats of Azadirachta indica” (J Nat Prod, 1991)
